PubChem BioAssay (NCI)
Where “and” joins values, the source holds several entries; their conditions need not be identical. Equal entries are not always repeated.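 Grown in 96-well plates, cells were treated for 48 hours with each compound at five concentrations. Insufficient inhibition: endpoint recorded as highest concentration tested. At the GI50, growth is halved. Definition used: TGI = concentration required for complete inhibition of growth.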

Tests used:
Assay in all cases: DTP human tumour cell line panel, 48 h
A498 renal = tested on: A498 renal
OVCAR-5 ovarian = tested on: OVCAR-5 ovarian
OVCAR-8 ovarian = tested on: OVCAR-8 ovarian
SF-539 CNS = tested on: SF-539 CNS
SK-MEL-5 melanoma = tested on: SK-MEL-5 melanoma
SF-295 CNS = tested on: SF-295 CNS
UO-31 renal = tested on: UO-31 renal
A549 NSCLC = tested on: A549 NSCLC
NCI-H23 lung = tested on: NCI-H23 lung
HCT-15 colon = tested on: HCT-15 colon
SK-OV-3 ovarian = tested on: SK-OV-3 ovarian
U251 CNS = tested on: U251 CNS
NCI-H522 lung = tested on: NCI-H522 lung
IGROV1 ovarian = tested on: IGROV1 ovarian
COLO 205 colon = tested on: COLO 205 colon
MOLT-4 leukemia = tested on: MOLT-4 leukemia
OVCAR-4 ovarian = tested on: OVCAR-4 ovarian
BT-549 breast = tested on: BT-549 breast
CCRF-CEM leukemia = tested on: CCRF-CEM leukemia
SR leukemia = tested on: SR leukemia
SW-620 colon = tested on: SW-620 colon
DU-145 prostate = tested on: DU-145 prostate
RPMI-8226 leukemia = tested on: RPMI-8226 leukemia
HT29 colon = tested on: HT29 colon
EKVX NSCLC = tested on: EKVX NSCLC
NCI-H226 lung = tested on: NCI-H226 lung
HOP-62 NSCLC = tested on: HOP-62 NSCLC
M14 melanoma = tested on: M14 melanoma
786-0 renal = tested on: 786-0 renal
MALME-3M melanoma = tested on: MALME-3M melanoma
SN12C renal = tested on: SN12C renal
NCI/ADR-RES ovarian = tested on: NCI/ADR-RES ovarian
SK-MEL-2 melanoma = tested on: SK-MEL-2 melanoma
T-47D breast = tested on: T-47D breast
SF-268 CNS = tested on: SF-268 CNS
SNB-75 CNS = tested on: SNB-75 CNS
RXF 393 renal = tested on: RXF 393 renal
LOX IMVI melanoma = tested on: LOX IMVI melanoma
MDA-MB-435 = tested on: MDA-MB-435
KM12 colon = tested on: KM12 colon
HOP-92 NSCLC = tested on: HOP-92 NSCLC
PC-3 prostate = tested on: PC-3 prostate
SNB-19 CNS = tested on: SNB-19 CNS
HS 578T breast = tested on: HS 578T breast
ACHN renal = tested on: ACHN renal
K-562 leukemia = tested on: K-562 leukemia
HCT-116 colon = tested on: HCT-116 colon
OVCAR-3 ovarian = tested on: OVCAR-3 ovarian
NCI-H460 lung = tested on: NCI-H460 lung
CAKI-1 renal = tested on: CAKI-1 renal
TK-10 renal = tested on: TK-10 renal
MDA-MB-231 breast = tested on: MDA-MB-231 breast
HL-60(TB) leukemia = tested on: HL-60(TB) leukemia
SK-MEL-28 melanoma = tested on: SK-MEL-28 melanoma
UACC-257 melanoma = tested on: UACC-257 melanoma
HCC-2998 colon = tested on: HCC-2998 colon
UACC-62 melanoma = tested on: UACC-62 melanoma
MCF7 breast = tested on: MCF7 breast

O=c1[nH]ncc2[nH]c3c(c12)CCc1ccccc1-3
TGI (A498 renal): 61800 nM | TGI (OVCAR-5 ovarian): > 100000 nM | TGI (OVCAR-8 ovarian): > 100000 nM | TGI (SF-539 CNS): 42100 nM | TGI (SK-MEL-5 melanoma): 25000 nM | TGI (SF-295 CNS): > 100000 nM | TGI (UO-31 renal): > 100000 nM | TGI (A549 NSCLC): > 100000 nM | TGI (NCI-H23 lung): > 100000 nM | TGI (HCT-15 colon): > 100000 nM | TGI (SK-OV-3 ovarian): > 100000 nM | TGI (U251 CNS): > 100000 nM | TGI (NCI-H522 lung): 57000 nM | TGI (IGROV1 ovarian): 44300 nM | TGI (COLO 205 colon): 30300 nM | TGI (MOLT-4 leukemia): 69700 nM | TGI (OVCAR-4 ovarian): > 100000 nM | TGI (BT-549 breast): > 100000 nM | TGI (CCRF-CEM leukemia): > 100000 nM | TGI (SR leukemia): > 100000 nM | TGI (SW-620 colon): > 100000 nM | TGI (DU-145 prostate): > 100000 nM | TGI (RPMI-8226 leukemia): 70700 nM | TGI (HT29 colon): > 100000 nM | TGI (EKVX NSCLC): 30200 nM | TGI (NCI-H226 lung): 40700 nM | TGI (HOP-62 NSCLC): > 100000 nM | TGI (M14 melanoma): > 100000 nM | TGI (786-0 renal): > 100000 nM | TGI (MALME-3M melanoma): > 100000 nM | TGI (SN12C renal): > 100000 nM | TGI (NCI/ADR-RES ovarian): > 100000 nM | TGI (SK-MEL-2 melanoma): 57700 nM | TGI (T-47D breast): 98900 nM | TGI (SF-268 CNS): > 100000 nM | TGI (SNB-75 CNS): 76100 nM | TGI (RXF 393 renal): 42000 nM | TGI (LOX IMVI melanoma): > 100000 nM | TGI (MDA-MB-435): > 100000 nM | TGI (KM12 colon): > 100000 nM | TGI (HOP-92 NSCLC): 81800 nM | TGI (PC-3 prostate): > 100000 nM | TGI (SNB-19 CNS): > 100000 nM | TGI (HS 578T breast): 59200 nM | TGI (ACHN renal): > 100000 nM | TGI (K-562 leukemia): > 100000 nM | TGI (HCT-116 colon): > 100000 nM | TGI (OVCAR-3 ovarian): > 100000 nM | TGI (NCI-H460 lung): 77000 nM | TGI (CAKI-1 renal): > 100000 nM | TGI (TK-10 renal): 81200 nM | TGI (MDA-MB-231 breast): > 100000 nM | TGI (HL-60(TB) leukemia): 69000 nM | TGI (SK-MEL-28 melanoma): > 100000 nM | TGI (UACC-257 melanoma): > 100000 nM

COc1ccc([C@@]23Oc4cc(OC)cc(OC)c4[C@]2(O)[C@H](O)[C@H](C(=O)N(C)C)[C@H]3c2ccccc2)cc1
GI50 (A498 renal): 15.5 nM | TGI (A498 renal): 23.4 nM and 7.19 nM and 40.3 nM | GI50 (OVCAR-5 ovarian): 11.6 nM | TGI (OVCAR-5 ovarian): 62.6 nM and 69.4 nM and 41.7 nM | GI50 (OVCAR-8 ovarian): 20.8 nM | TGI (OVCAR-8 ovarian): 244 nM and 236 nM and 488 nM | TGI (SF-539 CNS): 5.12 nM and 15.4 nM | GI50 (SK-MEL-5 melanoma): 22.7 nM | TGI (SK-MEL-5 melanoma): 14.4 nM and 139 nM | GI50 (SF-295 CNS): 12.4 nM | TGI (SF-295 CNS): 43.3 nM and 86.7 nM | GI50 (UO-31 renal): 21.4 nM | GI50 (NCI-H23 lung): 15.2 nM | GI50 (HCT-15 colon): 15 nM | GI50 (SK-OV-3 ovarian): 15.7 nM | GI50 (U251 CNS): 15.7 nM | GI50 (NCI-H522 lung): 17.9 nM | GI50 (IGROV1 ovarian): 24.8 nM | TGI (COLO 205 colon): 19.7 nM | GI50 (OVCAR-4 ovarian): 14.9 nM | GI50 (CCRF-CEM leukemia): 18.5 nM | GI50 (SR leukemia): 16 nM | TGI (SW-620 colon): 1020 nM and 260 nM and 244 nM | GI50 (DU-145 prostate): 13.5 nM | TGI (DU-145 prostate): 63.5 nM and 37.5 nM and 219 nM | GI50 (RPMI-8226 leukemia): 16.4 nM | TGI (EKVX NSCLC): 220 nM and 170 nM | GI50 (HOP-62 NSCLC): 15.2 nM | TGI (M14 melanoma): 14 nM | GI50 (786-0 renal): 28.7 nM | TGI (786-0 renal): 159 nM and 33.3 nM and 215 nM | TGI (HCC-2998 colon): 61.5 nM and 224 nM | GI50 (MALME-3M melanoma): 14.2 nM | GI50 (SN12C renal): 19.2 nM | TGI (SN12C renal): 329 nM and 66.4 nM and 186 nM | GI50 (NCI/ADR-RES ovarian): 7.7 nM and 56.6 nM | TGI (NCI/ADR-RES ovarian): 442 nM and 329 nM and 1550 nM | GI50 (SK-MEL-2 melanoma): 22.5 nM | TGI (SK-MEL-2 melanoma): 93.8 nM and 11.2 nM and 70.9 nM | TGI (T-47D breast): 44 nM and 5.2 nM | GI50 (SF-268 CNS): 15.2 nM | GI50 (SNB-75 CNS): 14.9 nM | GI50 (RXF 393 renal): 17.8 nM | TGI (RXF 393 renal): 82.3 nM and 26.2 nM and 78.5 nM | TGI (LOX IMVI melanoma): 18.9 nM and 22.5 nM | TGI (MDA-MB-435): 43.4 nM and 18.8 nM and 150 nM | TGI (KM12 colon): 89.2 nM and 281 nM | GI50 (HOP-92 NSCLC): 30.4 nM | TGI (HOP-92 NSCLC): 74.1 nM and 400 nM | GI50 (PC-3 prostate): 17.3 nM | GI50 (SNB-19 CNS): 11.3 nM | TGI (SNB-19 CNS): 1370 nM and 159 nM | GI50 (HS 578T breast): 22.5 nM | GI50 (UACC-62 melanoma): 24.3 nM | GI50 (K-562 leukemia): 3.34 nM | TGI (K-562 leukemia): 25000 nM and > 100000 nM | GI50 (OVCAR-3 ovarian): 16.4 nM | GI50 (CAKI-1 renal): 21.8 nM | TGI (CAKI-1 renal): 225 nM and 692 nM and 262 nM | GI50 (TK-10 renal): 48.4 nM | TGI (TK-10 renal): 53.1 nM and 150 nM and 435 nM | GI50 (MDA-MB-231 breast): 23.1 nM | TGI (MDA-MB-231 breast): 49 nM and 9.49 nM and 75.6 nM | GI50 (SK-MEL-28 melanoma): 13.4 nM | TGI (SK-MEL-28 melanoma): 61.6 nM and 29.2 nM and 49.2 nM | GI50 (UACC-257 melanoma): 30.9 nM

COc1ccc(C(=CCC(C)C2CCC3[C@@H]4C(OC(C)=O)CC5CC(OC(C)=O)CC[C@]5(C)C4CC(OC(C)=O)[C@]23C)c2ccc(OC)cc2)cc1 (stereo partly specified)
TGI (OVCAR-5 ovarian): > 100000 nM | TGI (OVCAR-8 ovarian): > 100000 nM | TGI (SF-539 CNS): > 100000 nM | TGI (SK-MEL-5 melanoma): > 100000 nM | TGI (MCF7 breast): > 100000 nM | TGI (SF-295 CNS): > 100000 nM | TGI (UO-31 renal): > 100000 nM | TGI (A549 NSCLC): > 100000 nM | TGI (HCT-15 colon): > 100000 nM | TGI (SK-OV-3 ovarian): > 100000 nM | TGI (U251 CNS): > 100000 nM | TGI (NCI-H522 lung): > 100000 nM | TGI (IGROV1 ovarian): > 100000 nM | TGI (COLO 205 colon): > 100000 nM | TGI (MOLT-4 leukemia): > 100000 nM | TGI (OVCAR-4 ovarian): > 100000 nM | TGI (CCRF-CEM leukemia): > 100000 nM | TGI (SR leukemia): 77500 nM | TGI (SW-620 colon): > 100000 nM | TGI (RPMI-8226 leukemia): > 100000 nM | TGI (HT29 colon): > 100000 nM | TGI (EKVX NSCLC): > 100000 nM | TGI (HOP-62 NSCLC): > 100000 nM | TGI (M14 melanoma): > 100000 nM | TGI (786-0 renal): > 100000 nM | TGI (HCC-2998 colon): > 100000 nM | TGI (SN12C renal): > 100000 nM | TGI (NCI/ADR-RES ovarian): > 100000 nM | TGI (T-47D breast): > 100000 nM | TGI (SF-268 CNS): > 100000 nM | TGI (SNB-75 CNS): > 100000 nM | TGI (MDA-MB-435): > 100000 nM | TGI (KM12 colon): > 100000 nM | TGI (PC-3 prostate): > 100000 nM | TGI (SNB-19 CNS): > 100000 nM | TGI (HS 578T breast): > 100000 nM | TGI (ACHN renal): > 100000 nM | TGI (K-562 leukemia): > 100000 nM | TGI (HCT-116 colon): > 100000 nM | TGI (NCI-H460 lung): > 100000 nM | TGI (TK-10 renal): > 100000 nM | TGI (MDA-MB-231 breast): > 100000 nM | TGI (HL-60(TB) leukemia): 45300 nM | TGI (SK-MEL-28 melanoma): > 100000 nM | TGI (UACC-257 melanoma): > 100000 nM
